# pIC50: −log10 of the molar value. Where two headings read alike, the source gives them in different places.
# Legend:
# [1] = Determination of hygroscopicity (high humidity test); assay type: physicochemical
# Description: The hygroscopicity of the compound of the invention can be tested by a standard hygroscopicity test method. For example, the compound is stored in a sealed vessel at room temperature at a relative humidity of 92.5%, 80% or 75%, and the change in moisture content of the compound is tested by sampling at regular intervals.
# At the 5th and 10th days, the products were sampled and determined in aspect of important items relating to stability investigation. […] If the weight gain of a product due to moisture absorption was more than 5%, the product was further experimented according to the same method under a relative humidity of 75%±5%. If the weight gain of a product due to moisture absorption was less than 5%, and other items thereof under investigation met the relevant requirements, no more experiment was needed. The humidity-constant condition could be achieved by placing a saturated saline solution at the lower part of a sealed vessel, e.g., a desiccator, and a NaCl saturated solution (15.5-60° C., a relative humidity of 75%±1%) or a KNO3 saturated solution (25° C., a relative humidity of 92.5%) may be selected according to the requirement of different relative humidity.
# [2] = Accelerated stability test of the hydrates; conditions: for Character / Content / Change in weight: 40° C., 75% RH
# Description: The stability of the compound of the invention can be tested by a standard stability test method, such as the methods specified in Guidelines for Stability Testing of Drug Substances involved in Appendix XIX C of Chinese Pharmacopoeia (2005 edition). For example, the stability of the compound of the general formula (I) can be tested by an accelerated stability test method, e.g., the stability of the compound of the general formula (I), at 0, 1, 2, 3, 6 months, is tested respectively under the conditions: 40° C., 75% relative humidity; 40° C., 92.5% relative humidity; and 80° C. The change in principal agent and relevant substances can be analyzed by thin layer chromatography, high performance liquid chromatography, and etc.
# The device used should be capable of controlling temperature with a precise of ±2° C., and relative humidity with a precise of ±5%, and could monitor true temperature and humidity. The products were sampled respectively at the end of the 1, 2, 3 and 6 months during the test, and determined in aspect of important items relating to stability investigation.
# [3] = Dissolution behavior in water; assay type: physicochemical; conditions: for dissolution behavior: 100 ml: 300 mg
# Description: (1) water for injection (room temperature)
# (2) water for injection (80° C.)
# (3) water for injection (room temperature, adjusted to be acidic with hydrochloric acid)
# (4) water for injection (adjusted to be basic with disodium hydrogen phosphate)
# [4] = Influence of different acidic conditions (pH) on stability of trihydrate solution, sterilization; assay type: physicochemical; conditions: conclusion from sterilization and 60° C. data
# Description: The resulting solutions were high pressure steam sterilized at 115° C. for 30 minutes. Then, the solutions were sampled for the determination of change in pH value and change in amount of relevant substances.
# [5] = molecular target: Influenza A virus (H3N2) neuraminidase (Influenza A virus, UniProt P03482); assay: Neuraminidase inhibition by fluorimetry with 4-MUNANA; assay type: biochemical
# [6] = tested on: Influenza B virus (B/Jing Fang/76/98) neuraminidase; assay: as above; assay type: biochemical
# [7] = tested on: influenza virus strain FM1 (H1N1); assay: Anti-influenza activity in infected mice (survival); assay type: in vivo, mice (BALB/C); conditions: 5 times, 14th day after infection
# Description: A virus drip is prepared typically by including 500 pfu (plaque forming unit) of mice-compliance influenza virus strain in 50 μl phosphate buffer (containing 0.42% bovine serum albumin), and then dropped into nasal cavity of mice to infect them (BALB/C, female, aged 5-6 weeks, weighted 20 g). The compound of the invention is suspended in physiological saline to obtain different doses, typically from 2.5 mg/kg to 40 mg/kg, and is administered to the mice at different time before and after the viral infection, typically administered by intraperitoneal injection for 5 times, i.e., 1 hour, and 2, 3, 4, 5 days after the viral infection. The assay is performed by using 8 or 12, typically 10 mice. The result is expressed by the ratio of the number of survival mice the 14th day after the viral infection to the number of the mice in assay.
# A solution was prepared by including 500 pfu (plaque forming unit) of mice-compliance influenza virus strain FM1 (H1N1) in 50 μl phosphate buffer (containing 0.42% bovine serum albumin), and then dropped into nasal cavity of mice (BALB/C, female, aged 5-6 weeks, weighted 20 g) to infect them with an infective dose of 23.7LD50. The compound of the invention was suspended in physiological saline, and was administered in doses of 2.5 mg/kg, 5 mg/kg, 10 mg/kg, 20 mg/kg to the mice by intraperitoneal injection for 5 times, i.e., 1 hour, and 2, 3, 4, 5 days after the viral infection, respectively. The assay was performed by 10 mice. The result was expressed by the ratio of the number of survival mice the 14th day after the viral infection to the number of the mice in assay.
# [8] = Relative humidity 92.5%, 25° C.
# [9] = Con. 0.01 nM, virus concentration NA 1/40
# [10] = Con. 0.1 nM, virus concentration NA 1/40
# [11] = Con. 1 nM, virus concentration NA 1/40
# [12] = Con. 10 nM, virus concentration NA 1/40
# [13] = Con. 100 nM, virus concentration NA 1/40
# [14] = virus concentration NA 1/40, read-out: IC50
# Chain of Influenza A virus (H3N2) neuraminidase (P03482 whole entry, looked up): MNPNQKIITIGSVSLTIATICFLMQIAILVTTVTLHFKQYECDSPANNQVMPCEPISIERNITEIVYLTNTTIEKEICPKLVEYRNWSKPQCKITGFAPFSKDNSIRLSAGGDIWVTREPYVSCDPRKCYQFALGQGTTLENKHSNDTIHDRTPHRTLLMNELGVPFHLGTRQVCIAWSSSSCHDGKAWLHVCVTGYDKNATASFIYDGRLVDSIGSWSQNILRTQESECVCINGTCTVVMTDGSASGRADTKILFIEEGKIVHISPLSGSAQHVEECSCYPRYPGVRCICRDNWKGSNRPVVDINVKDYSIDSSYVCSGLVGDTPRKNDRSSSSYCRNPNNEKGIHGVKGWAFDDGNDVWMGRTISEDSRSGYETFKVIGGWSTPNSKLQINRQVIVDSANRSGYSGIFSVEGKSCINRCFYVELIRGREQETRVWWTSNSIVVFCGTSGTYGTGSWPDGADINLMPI
smiles,measurement,setting,value
"CCC(CC)[C@H](NC(C)=O)[C@H]1[C@H](O)[C@@H](C(=O)O)C[C@H]1NC(=N)N.O.O.O.O.O.O [Hexahydrate, (1S,2S,3S,4R)-3-[(1S)-1-acetylamino-2-ethyl-butyl]-4-guanidino-2-hydroxy-cyclopentyl-1-carboxylic acid hexahydrate]",Hygroscopicity at the 5th day,[1]; Relative humidity 75%,3.86%
same,Hygroscopicity at the 10th day,[1]; Relative humidity 75%,6.33%
same,Hygroscopicity at the 5th day,[1]; [8],4.37%
same,Hygroscopicity at the 10th day,[1]; [8],9.96%
"CCC(CC)[C@H](NC(C)=O)[C@H]1[C@H](O)[C@@H](C(=O)O)C[C@H]1NC(=N)N.O [Monohydrate, (1S,2S,3S,4R)-3-[(1S)-1-acetylamino-2-ethyl-butyl]-4-guanidino-2-hydroxy-cyclopentyl-1-carboxylic acid monohydrate]",Hygroscopicity at the 5th day,[1]; Relative humidity 75%,2.41%
same,Hygroscopicity at the 10th day,[1]; Relative humidity 75%,2.77%
same,Hygroscopicity at the 5th day,[1]; [8],2.83%
same,Hygroscopicity at the 10th day,[1]; [8],3.35%
"CCC(CC)[C@H](NC(C)=O)[C@H]1[C@H](O)[C@@H](C(=O)O)C[C@H]1NC(=N)N.CCC(CC)[C@H](NC(C)=O)[C@H]1[C@H](O)[C@@H](C(=O)O)C[C@H]1NC(=N)N.O.O.O [Sesquihydrate, (1S,2S,3S,4R)-3-[(1S)-1-acetylamino-2-ethyl-butyl]-4-guanidino-2-hydroxy-cyclopentyl-1-carboxylic acid sesquihydrate]",Hygroscopicity at the 5th day,[1]; Relative humidity 75%,4.01%
same,Hygroscopicity at the 10th day,[1]; Relative humidity 75%,6.89%
same,Hygroscopicity at the 5th day,[1]; [8],4.48%
same,Hygroscopicity at the 10th day,[1]; [8],7.33%
"CCC(CC)[C@H](NC(C)=O)[C@H]1[C@H](O)[C@@H](C(=O)O)C[C@H]1NC(=N)N.O.O.O [Trihydrate, (1S,2S,3S,4R)-3-[(1S)-1-acetylamino-2-ethyl-butyl]-4-guanidino-2-hydroxy-cyclopentyl-1-carboxylic acid trihydrate]",Hygroscopicity at the 5th day,[1]; Relative humidity 75%,1.68%
same,Hygroscopicity at the 10th day,[1]; Relative humidity 75%,1.83%
same,Hygroscopicity at the 5th day,[1]; [8],2.11%
same,Hygroscopicity at the 10th day,[1]; [8],2.24%
same,weight gain,"[1]; ten-day observation test, sealed vessel, room temperature, high relative humidity",about 2.24%
same,Character,[2]; 0 month,White solid
same,Content,[2]; 0 month,99.90%
same,Change in weight,[2]; 1 month,+0.01%
same,Character,[2]; 1 month,White solid
same,Content,[2]; 1 month,99.95%
same,Change in weight,[2]; 2 months,−0.02%
same,Character,[2]; 2 months,White solid
same,Content,[2]; 2 months,99.97%
same,Change in weight,[2]; 3 months,+0.01%
same,Character,[2]; 3 months,White solid
same,Content,[2]; 3 months,99.96%
same,Change in weight,[2]; 6 months,+0.01%
same,Character,[2]; 6 months,White solid
same,Content,[2]; 6 months,99.91%
same,stability,"[2]; stability test of 1, 2, 3, 6 months",good stability
same,dissolution behavior,[3]; (1) water for injection (room temperature),slowly dissolved
same,dissolution behavior,[3]; (2) water for injection (80° C.),rapidly dissolved
same,dissolution behavior,"[3]; (3) water for injection, room temperature, acidic with hydrochloric acid",relatively easily dissolved
same,"dissolution behavior, condition (3) compared with (4)",[3]; (4) water for injection adjusted to be basic with disodium hydrogen phosphate,more easily dissolved under acidic condition
same,optimum pH value (stability in solution),[4],4.5-6.5
same,inhibitory rate IR,[5]; [9],0.63%
same,inhibitory rate IR,"[5]; Con. 0.01 nM, virus concentration NA 1/80",12.33%
same,inhibitory rate IR,[5]; [10],13.23%
same,inhibitory rate IR,"[5]; Con. 0.1 nM, virus concentration NA 1/80",24.04%
same,inhibitory rate IR,[5]; [11],60.99%
same,inhibitory rate IR,"[5]; Con. 1 nM, virus concentration NA 1/80",63.20%
same,inhibitory rate IR,[5]; [12],99.25%
same,inhibitory rate IR,"[5]; Con. 10 nM, virus concentration NA 1/80",98.80%
same,inhibitory rate IR,[5]; [13],100.43%
same,inhibitory rate IR,"[5]; Con. 100 nM, virus concentration NA 1/80",99.89%
same,pIC50,"[5]; average of NA 1/40 and NA 1/80, read-out: Average IC50",9.27
same,pIC50,[5]; [14],9.17
same,pIC50,"[5]; virus concentration NA 1/80, read-out: IC50",9.39
same,inhibitory rate IR,"[6]; Con. 0.01 nM, virus concentration NA 1/20",8.81%
same,inhibitory rate IR,[6]; [9],7.92%
same,inhibitory rate IR,"[6]; Con. 0.1 nM, virus concentration NA 1/20",15.31%
same,inhibitory rate IR,[6]; [10],19.17%
same,inhibitory rate IR,"[6]; Con. 1 nM, virus concentration NA 1/20",39.11%
same,inhibitory rate IR,[6]; [11],44.84%
same,inhibitory rate IR,"[6]; Con. 10 nM, virus concentration NA 1/20",82.01%
same,inhibitory rate IR,[6]; [12],81.45%
same,inhibitory rate IR,"[6]; Con. 100 nM, virus concentration NA 1/20",97.78%
same,inhibitory rate IR,[6]; [13],96.71%
same,pIC50,"[6]; average of NA 1/20 and NA 1/40, read-out: Average IC50",8.97
same,pIC50,"[6]; virus concentration NA 1/20, read-out: IC50",8.94
same,pIC50,[6]; [14],9.00
same,Survival number,[7]; 2.5 mg/kg intraperitoneal,6/10
same,Survival rate,[7]; 2.5 mg/kg intraperitoneal,60%
same,Survival number,[7]; 5.0 mg/kg intraperitoneal,7/10
same,Survival rate,[7]; 5.0 mg/kg intraperitoneal,70%
same,Survival number,[7]; 10 mg/kg intraperitoneal,8/10
same,Survival rate,[7]; 10 mg/kg intraperitoneal,80%
same,Survival number,[7]; 20 mg/kg intraperitoneal,9/10
same,Survival rate,[7]; 20 mg/kg intraperitoneal,90%

# — patent publication US9518008B2, “(1S,2S,3S,4R)-3-[(1S)-1-acetylamino-2-ethyl-butyl]-4-uanidino-2-hydroxyl-cyclopentyl-1-carboxylic acid hydrates pharmaceutical uses thereof” (Institute of Pharmacology and Toxicology Academy of …, priority 2007, dated 2016)
